Measurements taken from patent US11192889B2, “Tetrahydronaphthyridinepentanamide integrin antagonists” (The Rockefeller University, priority 2016, dated 2021).
Several values for one entry are separate records, joined by “and”; a condition that tells them apart may be missing. Equal values may be shown once.

Key:
HEK-293-αVβ3 cells [1] = biological target: T1, HEK-293-αVβ3 cells (Homo sapiens, UniProt P05106+P06756); experiment: AP5 Binding Assay; assay type: cell-based; conditions: for activation at 10 µM: relative to AP5 expression induced by cilengitide, read-out: AP5 expression induced at the highest concentration; for EC50: concentration inducing 50% of the AP5 expression induced by 1 μM cilengitide
T1 sequence (P05106 whole entry): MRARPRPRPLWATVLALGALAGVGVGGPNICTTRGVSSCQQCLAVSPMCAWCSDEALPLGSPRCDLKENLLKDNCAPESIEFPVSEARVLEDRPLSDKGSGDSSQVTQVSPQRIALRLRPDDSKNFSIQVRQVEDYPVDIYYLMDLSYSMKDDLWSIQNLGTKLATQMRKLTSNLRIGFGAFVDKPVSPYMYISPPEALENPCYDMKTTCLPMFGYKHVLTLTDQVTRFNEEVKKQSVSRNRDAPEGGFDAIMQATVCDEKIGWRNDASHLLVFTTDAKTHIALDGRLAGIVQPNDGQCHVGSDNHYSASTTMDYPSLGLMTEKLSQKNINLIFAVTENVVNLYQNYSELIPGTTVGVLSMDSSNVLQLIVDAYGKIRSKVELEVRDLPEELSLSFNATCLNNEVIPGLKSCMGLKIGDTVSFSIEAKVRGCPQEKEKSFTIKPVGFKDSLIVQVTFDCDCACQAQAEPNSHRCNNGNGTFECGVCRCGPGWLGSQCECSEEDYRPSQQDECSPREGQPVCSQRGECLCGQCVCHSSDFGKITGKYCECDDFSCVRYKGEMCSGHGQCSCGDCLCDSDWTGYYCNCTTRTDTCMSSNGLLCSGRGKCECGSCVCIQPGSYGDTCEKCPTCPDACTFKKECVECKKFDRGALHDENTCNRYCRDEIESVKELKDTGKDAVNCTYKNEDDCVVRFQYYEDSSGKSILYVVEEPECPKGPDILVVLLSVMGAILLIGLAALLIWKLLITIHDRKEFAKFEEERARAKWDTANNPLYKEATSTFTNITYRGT
T1 sequence (P06756 whole entry): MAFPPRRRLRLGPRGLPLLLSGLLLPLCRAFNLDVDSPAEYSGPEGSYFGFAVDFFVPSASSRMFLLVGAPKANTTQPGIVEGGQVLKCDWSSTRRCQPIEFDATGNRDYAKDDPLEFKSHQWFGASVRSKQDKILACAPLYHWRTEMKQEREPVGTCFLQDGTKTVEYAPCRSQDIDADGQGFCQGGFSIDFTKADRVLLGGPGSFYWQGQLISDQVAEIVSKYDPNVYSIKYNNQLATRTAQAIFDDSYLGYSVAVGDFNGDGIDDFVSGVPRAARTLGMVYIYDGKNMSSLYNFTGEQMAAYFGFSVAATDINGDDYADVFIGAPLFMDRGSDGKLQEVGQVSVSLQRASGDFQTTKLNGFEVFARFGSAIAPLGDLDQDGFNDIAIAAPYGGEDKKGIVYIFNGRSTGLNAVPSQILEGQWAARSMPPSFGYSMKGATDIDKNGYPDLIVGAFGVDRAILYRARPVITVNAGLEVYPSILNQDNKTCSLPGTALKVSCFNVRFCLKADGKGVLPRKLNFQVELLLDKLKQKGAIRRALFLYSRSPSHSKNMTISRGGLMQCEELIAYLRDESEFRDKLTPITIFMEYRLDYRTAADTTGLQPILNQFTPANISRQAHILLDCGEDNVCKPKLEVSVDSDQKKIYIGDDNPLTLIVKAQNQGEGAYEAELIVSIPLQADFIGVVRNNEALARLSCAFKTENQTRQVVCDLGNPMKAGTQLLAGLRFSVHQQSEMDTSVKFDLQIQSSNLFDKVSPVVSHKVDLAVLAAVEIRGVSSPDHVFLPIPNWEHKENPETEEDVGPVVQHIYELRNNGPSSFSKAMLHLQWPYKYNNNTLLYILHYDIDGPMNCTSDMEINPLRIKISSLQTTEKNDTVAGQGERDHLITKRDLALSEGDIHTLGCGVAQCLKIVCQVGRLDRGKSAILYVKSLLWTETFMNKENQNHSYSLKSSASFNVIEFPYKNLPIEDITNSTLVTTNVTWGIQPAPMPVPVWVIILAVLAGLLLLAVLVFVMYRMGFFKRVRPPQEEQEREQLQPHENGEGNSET
From the text: (§1) HEK-293 Cells Expressing αVβ3. HEK-293 cells were transfected using lipofectamine 2000 (Invitrogen #11668030) with the cDNA for αV using the pEF1/V5-His A vector and the cDNA for β3 using the vector pcDNA3.1. Cells expressing αVβ3 were identified by their reaction with murine monoclonal antibodies (mAbs) LM609 and 7E3, and stable cell lines were established by repetitive sorting using LM609. […] HEK-293-αVβ3 cells for assays are counted in an automated cell counter (ADVIA 120) and adjusted to values appropriate for each assay.
AP5 Binding Assay. HEK-293-αVβ3 cells are harvested using 0.05% trypsin 0.5 mM EDTA, washed with HBMT once, and resuspended in HBMT containing 1 mM Mg2+ and 2 mM Ca2+. The cells are counted and adjusted to 0.5×10^6 cells per sample. The compound to be tested and fluorescently labeled mAb AP5 (either Alexa 488 or Alexa 674; 10 μg/mL) are added and incubated for 30 minutes at 37° C. The cells are then washed and analyzed by flow cytometry (BD FACSCalibur) at the appropriate wavelength for detecting the AP5 fluorophore. In each assay, cilengitide (1 μM) and 10 mM EDTA are included as positive controls and untreated cells are used as the negative control. The concentration of the test compound required to induce the expression of 50% of the AP5 expression induced by cilengitide is calculated and defined as the EC50. The EC50 for cilengitide was determined based on the expression induced by EDTA.

HEK-293-αVβ3 cells [2] = biological target: T1, HEK-293-αVβ3 cells; experiment: αVβ3 Cell Adhesion to Fibrinogen Assay; assay type: cell-based; set-up: IC50; other: dose reducing by 50% the adhesion of HEK-293-αVβ3 cells to fibrinogen; untreated cells 100% adhesion, 10 mM EDTA 0%; conditions: for IC50: dose reducing by 50% the adhesion of HEK-293-αVβ3 cells to fibrinogen, separate determinations listed
From the text: as §1
αVβ3 Cell Adhesion to Fibrinogen Assay. Polystyrene 96-well microtiter plates (Costar, 3590) are precoated with 3.5 μg/mL of purified fibrinogen (Enzyme Research Laboratories) in 0.15 M NaCl, 0.01 M Tris/HCL, pH 7.4 for 1 hour at 37° C. The wells are then washed and incubated with HEPES-Buffered Modified Tyrode's solution (HBMT; 0.128 M NaCl, 10 mM HEPES, 12 mM NaHCO3, 0.4 mM NaH2PO4, 2.7 mM KCl, 0.35% bovine serum albumin (Fisher), 0.1% glucose, pH 7.4) for 1 hour at room temperature or overnight at 4° C. Wells are washed with HBMT containing 1 mM Mg2+ and 2 mM Ca2+ and then 50 μL of HEK-293-αVβ3 cells that have been pretreated with the compound to be tested for 20 minutes at room temperature are added to each well at a concentration of 3,000 cells/μL. After 30-32 minutes the wells are washed with HBMT containing Ca2+ and Mg2+ three times and then the adherent cells are lysed and the acid phosphatase activity that is released is measured by: 1. adding phosphatase substrate (Sigma EC 224-246-5) at 2 mg/mL in 0.1 M Na citrate, pH 5.6, 0.1% triton X-100 for 1 hour at room temperature; 2. stopping the reaction by adding 50 μL of 2 M NaOH; and 3. analyzing the samples in a spectrophotometer at 405 nm. In each assay, 10 mM EDTA is used as a positive control and untreated cells are used as a negative control. The IC50 is the dose of test compound that reduces by 50% the adhesion of the HEK-293-αVβ3 cells, taking the results with untreated cells as 100% and the results in the presence of EDTA as 0%. In some instances more than one IC50 determination was made, in which case, results of separate determinations are reported. IC50's were not determined for all compounds in the table; for some of these test compounds the inhibition at specific doses are reported. In some instances, the test compound produced a greater reduction than 10 mM EDTA, and these are shown as negative numbers.

| activation at 10 µM (HEK-293-αVβ3 cells [1]) [%] | EC50 (HEK-293-αVβ3 cells [1]) [nM] | inhibition at specific dose 0.1 (HEK-293-αVβ3 cells [2]; dose 0.1 (table in μM), untreated cells 100% adhesion, 10 mM EDTA 0%) [%] | IC50 (HEK-293-αVβ3 cells [2]) | SMILES |
| --- | --- | --- | --- | --- |
| 22 | > 10000 | 40 | 1330 nM | O=C(CCCCc1ccc2c(n1)NCCC2)NCCC(NS(=O)(=O)c1cccnc1)C(=O)O (stereo not shown) [Example 44] |
| 16 | > 10000 |  | < 100 nM | CC1(C)[C@@H]2CC[C@]1(CS(=O)(=O)NC(CCNC(=O)CCCCc1ccc3c(n1)NCCC3)C(=O)O)C(=O)C2 (stereo partly shown) [Example 50] |
| 10 | > 10000 |  | 579 nM | COc1ccc(COC(=O)NC(CCNC(=O)CCCCc2ccc3c(n2)NCCC3)C(=O)O)cc1 (stereo not shown) [Example 60] |
| 14 | > 10000 |  | 586 nM | O=C(CCCCc1ccc2c(n1)NCCC2)NCCC(NC(=O)OCCc1ccccc1)C(=O)O (stereo not shown) [Example 61] |
| 12 | > 10000 |  | 628 nM | O=C(CCCCc1ccc2c(n1)NCCC2)NCCC(NC(=O)OCC(F)(F)C(F)(F)F)C(=O)O (stereo not shown) [Example 62] |
| 16 | > 10000 |  | 491 nM | COc1ccccc1COC(=O)NC(CCNC(=O)CCCCc1ccc2c(n1)NCCC2)C(=O)O (stereo not shown) [Example 63] |
| 21 | > 10000 |  | 248 nM and 359 nM | O=C(CCCCc1ccc2c(n1)NCCC2)NCCC(NC(=O)OCC1CCC(F)(F)CC1)C(=O)O (stereo not shown) [Example 64] |
| 13 | > 10000 |  | 120 nM | O=C(CCCCc1ccc2c(n1)NCCC2)NCCC(NC(=O)OCc1ccccc1F)C(=O)O (stereo not shown) [Example 65] |
| 12 | > 10000 |  | 533 nM | O=C(CCCCc1ccc2c(n1)NCCC2)NCCC(NC(=O)OCc1cccc(F)c1)C(=O)O (stereo not shown) [Example 66] |
| 13 | > 10000 |  | 320 nM | O=C(CCCCc1ccc2c(n1)NCCC2)NCCC(NC(=O)OCc1ccc(F)cc1)C(=O)O (stereo not shown) [Example 67] |
| 9 | > 10000 |  | 320 nM | O=C(CCCCc1ccc2c(n1)NCCC2)NCCC(NC(=O)OCc1ccc(F)c(F)c1)C(=O)O (stereo not shown) [Example 68] |
| 7 | > 10000 |  | 211 nM | O=C(CCCCc1ccc2c(n1)NCCC2)NCCC(Nc1nc2ccccc2o1)C(=O)O (stereo not shown) [Example 69, 2-(1,3-benzoxazol-2-ylamino)-4-[5-(5,6,7,8-tetrahydro-1,8-naphthyridin-2-yl)pentanoylamino]butanoic acid] |
| 6 | > 10000 |  | 525 nM | O=C(CCCCc1ccc2c(n1)NCCC2)NCCC(Nc1nc2ccccc2s1)C(=O)O (stereo not shown) [Example 70, 2-(1,3-Benzothiazol-2-ylamino)-4-[5-(5,6,7,8-tetrahydro-1,8-naphthyridin-2-yl)pentanoylamino]butanoic acid] |
| 9 | > 10000 |  | 1140 nM | COc1cccc(C(=O)NC(CCNC(=O)CCCCc2ccc3c(n2)NCCC3)C(=O)O)n1 (stereo not shown) [Example 71, 2-[(6-methoxypyridine-2-carbonyl)amino]-4-[5-(5,6,7,8-tetrahydro-1,8-naphthyridin-2-yl)pentanoylamino]butanoic acid] |
| 6 | > 10000 |  | 181 nM and 90.4 nM and 185 nM | O=C(CCCCc1ccc2c(n1)NCCC2)NCCC(NC(=O)c1ncc(-c2ccccc2)s1)C(=O)O (stereo not shown) [Example 72, 2-[(5-phenylthiazole-2-carbonyl)amino]-4-[5-(5,6,7,8-tetrahydro-1,8-naphthyridin-2-yl)pentanoylamino]butanoic acid] |
| 2.5 | > 10000 |  | 502 nM and 142 nM | O=C(CCCCc1ccc2c(n1)NCCC2)NCCC(NC(=O)c1nc2ccccc2n1CC1CC1)C(=O)O (stereo not shown) [Example 73, 2-[[1-(cyclopropylmethyl)benzimidazole-2-carbonyl]amino]-4-[5-(5,6,7,8-tetrahydro-1,8-naphthyridin-2-yl)pentanoylamino]butanoic acid] |
| 4 | > 10000 |  | 115 nM | O=C(CCCCc1ccc2c(n1)NCCC2)NCCC(NC(=O)c1nc2ccccc2o1)C(=O)O (stereo not shown) [Example 74, 2-(1,3-benzoxazole-2-carbonylamino)-4-[5-(5,6,7,8-tetrahydro-1,8-naphthyridin-2-yl)pentanoylamino]butanoic acid] |
| 9 | > 10000 |  | < 100 nM and 54.6 nM and 65.1 nM | O=C(CCCCc1ccc2c(n1)NCCC2)NCCC(NC(=O)c1nc2ccccc2s1)C(=O)O (stereo not shown) [Example 75, 2-(1,3-benzothiazole-2-carbonylamino)-4-[5-(5,6,7,8-tetrahydro-1,8-naphthyridin-2-yl)pentanoylamino]butanoic acid] |
| 9 | > 10000 |  | 939 nM | O=C(CCCCc1ccc2c(n1)NCCC2)NCCC(C(=O)O)n1cc(-c2ccccc2)nn1 (stereo not shown) [Example 76, 2-(4-phenyltriazol-1-yl)-4-[5-(5,6,7,8-tetrahydro-1,8-naphthyridin-2-yl)pentanoylamino]butanoic acid] |
| 8 | > 10000 |  | 2020 nM | CC(C)Cc1cn(C(CCNC(=O)CCCCc2ccc3c(n2)NCCC3)C(=O)O)nn1 (stereo not shown) [Example 77, 2-(4-isobutyltriazol-1-yl)-4-[5-(5,6,7,8-tetrahydro-1,8-naphthyridin-2-yl)pentanoylamino]butanoic acid] |
| 10 | > 10000 |  | 518 nM | O=C(CCCCc1ccc2c(n1)NCCC2)NCCC(C(=O)O)n1cnc(-c2ccccc2)n1 (stereo not shown) [Example 78, 2-(3-phenyl-1,2,4-triazol-1-yl)-4-[5-(5,6,7,8-tetrahydro-1,8-naphthyridin-2-yl)pentanoylamino]butanoic acid] |
| 19 | > 10000 |  | 532 nM | COc1ccc(C(CCNC(=O)CCCCc2ccc3c(n2)NCCC3)C(=O)O)cn1 (stereo not shown) [Example 79, 2-(6-methoxy-3-pyridyl)-4-[5-(5,6,7,8-tetrahydro-1,8-naphthyridin-2-yl)pentanoylamino]butanoic acid] |
| 7.5 | > 10000 |  | 1570 nM and 429 nM | O=C(CCCCc1ccc2c(n1)NCCC2)NCCC(C(=O)O)c1ccc(Oc2ccccc2)nc1 (stereo not shown) [Example 80, 2-(6-phenoxy-3-pyridyl)-4-[5-(5,6,7,8-tetrahydro-1,8-naphthyridin-2-yl)pentanoylamino]butanoic acid] |
| 9 | > 10000 |  | < 100 nM and 101 nM and 143 nM | O=C(CCCCc1ccc2c(n1)NCCC2)NCCC(Nc1ncc(-c2ccccc2)cn1)C(=O)O (stereo not shown) [Example 81, 2-[(5-phenylpyrimidin-2-yl)amino]-4-[5-(5,6,7,8-tetrahydro-1,8-naphthyridin-2-yl)pentanoylamino]butanoic acid] |
| 12 | > 10000 |  | 206 nM | O=C(CCCCc1nc2c(cc1C1CC1)CCCN2)NCCC(NC(=O)OCc1ccccc1)C(=O)O (stereo not shown) [Example 82, 2-(benzyloxycarbonyl-amino)-4-[5-(3-cyclopropyl-5,6,7,8-tetrahydro-1,8-naphthyridin-2-yl)pentanoyl-amino]butanoic acid] |
